The target of series [1] is T1, recombinant human EP4 receptor membrane protein (Homo sapiens, UniProt P35408).
T1 construct: expressed in transfected cells; host or cells: membranes of 293 cells overexpressing human EP4 receptor
Put plainly: Radioligand binding assay for EP4 receptor ([3H]-PGE2). Conditions: [3H]-PGE2 1.5 nM; membrane protein 20 μg/well. As for the experimental part: The compounds to be tested and PGE2 were formulated as 10 mM stocks in a DMSO solvent, and then 8 concentration points of 4× working solution were serially diluted using a buffer (50 mM HBSS, 0.1% BSA, 500 mM NaCl). […] Unifilter-96 GF/C filter plate (Perkin Elmer) was soaked with 0.5% BSA, 50 μL per well, for at least 30 min at room temperature. After binding was complete, the reaction mixture was harvested through a GF/C plate using a Perkin Elmer Filtermate Harvester, followed by washing the filter plate and drying the filter plate for 1 hour at 50° C. After drying, the bottom of the filter plate wells was sealed using a Perkin Elmer Unifilter-96 sealing tape, and 50 μL of MicroScint™-20 cocktail (Perkin Elmer) was added to seal the top of the filter plate. The ^3H counts captured on the filter were read using a Perkin Elmer MicroBeta2 Reader.
The IC50 and Ki values of the compounds determined by the radioligand binding assay for EP4 receptor were calculated based on the inhibition rate of the different concentrations of the compounds.

In series [2] the test system is CT-26 murine colon cancer tumor model. Put plainly: Anti-tumor effect in CT-26 murine colon cancer tumor model in combination with radiation therapy. Conditions: 150 mg/kg intragastric once daily in combination with radiotherapy (3Gry, once on day 1); day 23; tumor weight. In kind it is in vivo, mouse. As for the experimental part:
In this assay, the anti-tumor effects of the control compound and the compounds prepared in Examples 1 to 43, in combination with radiation therapy, were tested in a CT-26 murine colon cancer tumor model.
After one week of adaptive feeding of mice, CT-26 cells in a log phase were resuspended in PBS, 5×10^5 CT-26 cells were inoculated subcutaneously at the right flank at 100 μL per mouse, and tumor growth was observed regularly. When the tumor grew to an average volume of 60 to 80 mm^3, the mice carrying the tumor were randomly divided into 5 groups based on the tumor volume size, each group containing 10 mice of 10. These group were a group of Control compound (150 mg/kg) in combination with radiotherapy (3Gry), a group of Compound I-2 (150 mg/kg) in combination with radiotherapy, a group of Compound I-5 (150 mg/kg) in combination with radiotherapy, a group of radiotherapy (3Gry) alone, and a group of vehicle control. The mice were intragastrically administered with the corresponding compound once daily, for 23 days in total; radiation therapy was performed for one-time on the first day of the administration. Tumor volumes and mouse body weights were measured twice a week, and tumor weights were weighed at the end of the experiment. Efficacy evaluations were performed based on relative tumor inhibition (TGI), safety evaluations were performed based on changes in animal body weight and death. Tumor volume and relative tumor inhibition were calculated as follows:
Tumor volume (TV)=½×a×b^2, where a and b are the length and width of the tumor measurement, respectively.
Relative tumor inhibition rate TGI (%)=(TWc−TWt/TWc)×100%, where TWc is the mean tumor weight of the vehicle control group and TW is the mean tumor weight of the treatment group.

Series [3] deals with T2, human EP4 receptor (Homo sapiens, UniProt P35408). The series can be described thus: Assay of calcium current inhibition on EP4 receptor (FLIPR, 293 cells). In kind it is cell-based. Details: expressed in transfected cells; host or cells: 293 cells. Conditions: 293 cells overexpressing human EP4; PGE2 at EC80; FLIPR. Here is the method:
The cells were rapidly thawed in a 37° C. water bath, centrifuged, resuspended, and counted. The cell suspensions were seeded at 20 μL/well in two 384-well plates (20,000 cells/well) and placed in an incubator (a 37° C., 5% CO2) overnight. Preparation of a 2× Fluo-4 Direct™ (Invitrogen, Cat #F10471) loading buffer: 77 mg of probenecid was added to 1 mL of a FLIPR buffer, with a concentration of 250 mM. 10 mL of FLIPR buffer and 0.2 mL of probenecid (250 mM) were added to each tube of Fluo-4 Direct™ crystals (F10471).
One of the cell plates was taken out of the incubator and the medium was removed. 20 μL of an assay buffer and 2× Fluo-4 Direct™ non-wash loading buffer were added to the 384-well cell culture plate to a final volume of 40 μL, and then the culture plate was incubated in an incubator (a 37° C., 5% CO2) for 50 minutes, and then at room temperature for 10 minutes, and then the plate was placed in the FLIPR. 10 μL of the buffer was transferred to the cell plate and the fluorescence signal was read. The agonist PGE2 was formulated as a 10 mM stock in a DMSO solvent and 10 concentration points of the 6× working solution were serially diluted using the buffer. 10 μL of the agonist PGE2 was transferred to the cell plate, the fluorescence signal was read to calculate EC80 value.
The agonist PGE2 was prepared at 6× EC80 concentration and the compound to be tested was formulated as a 10 mM stock solution in the DMSO solvent and 10 concentration points of the 6× compound working solution was serially diluted using the buffer.
Another cell plate was taken to remove media and 20 μL of the assay buffer and 2× Fluo-4 Direct™ non-wash loading buffer were added; the cell plate was incubated in a 37° C., 5% CO2 incubator for 50 minutes and room temperature for 10 minutes and then placed in the FLIPR. 10 μL of the compound working solution, DMSO, and the EP4 full antagonist were transferred to the cell plate and the fluorescence signal was read. […] Inhibition (%)=100−(test group−EP4 full antagonist group)/(DMSO group−EP4 full antagonist group)*100
Compound's IC50 value of EP4 calcium current inhibition was calculated based on the inhibition rate at different concentrations of the compound.

Series [4] in a line: Mouse pharmacokinetic assay. In kind it is in vivo, male ICR mice. Conditions: male, ICR, plasma, oral gavage administration 5 mg/kg. Here is the method:
In a mouse pharmacokinetic assay, male ICR mice (20 g to 25 g) were selected and fasted overnight. Three mice were selected and intragastrically administered with 5 mg/kg of the corresponding compound. The blood of the mice was collected before the administration and at 15 min, 30 min, 1 h, 2 h, 4 h, 8 h, 24 h after the administration. Another 3 mice were intravenously administered with 1 mg/kg of the corresponding compound, and the blood thereof was collected before the administration and at 15 min, 30 min, 1 h, 2 h, 4 h, 8 h, 24 h after the administration. The blood samples were centrifuged at 6800 g at 2° C. to 8° C. for 6 minutes, and plasma was collected and stored at −80° C. The plasma was taken at respective time point, mixed with 3-5 times the amount of acetonitrile containing internal standard, vortexed for 1 minute, centrifuged at 4° C. for 10 minutes at 13000 rpm, supernatant was added 3 times the amount of water, and the appropriate mixture was taken for LC-MS/MS analysis. The primary pharmacokinetic parameters were analyzed with a WinNonlin 7.0 software, with non-compartmental model.

In series [5] the target is T2, human EP4 receptor. The series can be described thus: Assay for EP4 antagonistic effect (cAMP, PGE2-stimulated CHO stable cell line).
Description: After trypsinization, cells were resuspended in a buffer (1×HBSS, 0.1% BSA, 20 mM HEPES, and 500 μM IBMX) and 8000 cells were seeded per well in 384-well plates in a seeding volume of 15 μL. A working solution the compound with a 8× concentration was prepared with an experimental buffer, and then 2.5 μL of the working solution of the compound with 8× concentration was added to the 384-well plate, respectively, and incubated at 37° C. for 30 min. An agonist PGE2 working solution with 8× concentration of (4 nM) was prepared with the experimental buffer and 2.5 μL per well was added to the 384-well plate (the final PGE2 concentration was 0.5 nM) and incubated at 37° C. for 30 min. After the reaction was completed, the amount of cAMP in the cells was quantified according to the method in the instructions of the cAMP test kit (Perkin Elmer, Cat #TRF0263). The antagonistic effects (IC50 value) were calculated for the test compounds.

Each structure is given as a SMILES string.

T1 sequence (P35408 whole entry): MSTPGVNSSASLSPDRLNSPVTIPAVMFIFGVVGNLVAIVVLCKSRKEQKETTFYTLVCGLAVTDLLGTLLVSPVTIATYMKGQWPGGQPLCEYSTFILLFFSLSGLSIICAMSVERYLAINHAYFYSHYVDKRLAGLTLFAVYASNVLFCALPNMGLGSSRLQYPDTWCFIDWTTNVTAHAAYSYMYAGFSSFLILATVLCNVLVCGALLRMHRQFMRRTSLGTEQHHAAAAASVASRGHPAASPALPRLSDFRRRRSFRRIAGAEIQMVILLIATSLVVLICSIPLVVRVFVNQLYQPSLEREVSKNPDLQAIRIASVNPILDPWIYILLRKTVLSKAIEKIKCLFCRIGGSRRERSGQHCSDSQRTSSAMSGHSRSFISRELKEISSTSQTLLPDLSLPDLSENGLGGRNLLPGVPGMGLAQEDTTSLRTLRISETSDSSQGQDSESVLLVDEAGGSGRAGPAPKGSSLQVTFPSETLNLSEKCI
T2 sequence (P35408 whole entry): as above

As a reminder, the IC50 is the concentration needed to halve the response being measured. As a reminder, the Ki is the dissociation constant of the complex between target and ligand, obtained from inhibition or displacement. Broadly, the AUC(0-t) is the area under the concentration-time curve up to a stated or last time point. The term Cmax denotes the maximum level reached in the sampled fluid or tissue. In general, Tmax refers to the time at which the peak concentration occurs. One may read the half-life as how long it takes for the measured level to halve. A lower half-life goes with fast loss. With `CCc1cc(Oc2c(C(=O)N[C@@H](C)c3ccc(C(=O)O)cc3)c(C(F)F)nn2C)ccc1F` [Compound I-2, (S)-4-(1-(3-(difluoromethyl)-5-(3-ethyl-4-fluorophenoxy)-1-methyl-1H-pyrazole-4-carboxamido)ethyl)benzoic Acid], in series [1], the IC50 was determined as 5.5 nM and the Ki came out at 3 nM. The “relative tumor inhibition rate TGI (%)” value in series [2] came to 63%. The IC50 on human EP4 receptor [3] turned out to be 7.4 nM. For the same compound, in series [4], the AUC(0-t) amounted to 2140 ng·h/mL, the Cmax was determined as 1840 ng/mL, the Tmax came to 0.33 h and the half-life is 15.7 h. Besides, the IC50 on human EP4 receptor [5] came to 1.9 nM.

The values above are taken from US12643889B2, “Synthesis of novel EP4 antagonist and use in cancer and inflammation” (Wuhan Humanwell Innovative Drug Research And Development …, priority 2020, dated 2026).
